Source: patent US12365643B2, “Phenoxy carboxylic acid compounds and medical uses thereof” (QINGDAO RISING BIOTECHNOLOGY CO., LTD, priority 2018, dated 2025)

Columns and labels:
Format in all cases: cell-based, human
CPT1α = CPT1α protein level by Western blotting in HepG2; settings: 1 μM, 24 hours, HepG2, Western blotting (FIG. 6A)
Text: (§1) Carnitine palmitoyltransferase (CPT1α) is a rate-limiting enzyme of fatty acid oxidation. When the body or tissues are lacking in energy, CPT1α catalyzes the entry of fatty acids into mitochondria for […], and at the same time, CPT1α is also involved in the regulation of fatty acid-induced insulin resistance and inflammation. Protein kinase B/glycogen synthase kinase 3β (AKT/GSK3β) signaling pathway and insulin receptor substrate 1 (IRS-1) are key signaling pathways that regulate glucose metabolism in response to insulin signal. Therefore, by determining the effects of compounds on the CPT1α protein level and the AKT, GSK3β and IRS-1 protein phosphorylation levels, it is possible to evaluate the regulatory effects of the compounds on glycolipid metabolism.
(§2) After human liver cancer cells HepG2 were incubated with the compound of the present application or the control drug at 1 μM for 24 hours, the CPT1α protein level and the AKT, GSK3β and IRS-1 phosphorylated protein levels in the cells were determined by Western blotting; after gray-scale scanning by using Image J15.0.1, normalization was performed by using β-tubulin protein level as internal control, and the quantitative analysis results were shown in FIG. 6.

[1] = tested on: antioxidant response element (ARE); assay: ARE luciferase reporter gene activity in HepG2 cells; settings: 50 μM, HepG2 stably transfected (FIG. 4)
Procedure: (§3) NF-κB was the most important inflammatory signal pathway. SW480 human colon cancer cells stably transfected with a luciferase reporter gene driven by NF-κB were used to determine the effects of the compound of the present application and the control drug gemfibrozil on NF-κB transcriptional activity, which comprised the following steps. • (1) Cells stably transfected with NF-κB Luc were cultivated to exponential growth, inoculated at a culture medium concentration of 1×10^5/[…] in a 24-well plate, and cultured for 24 hours, the medium was discarded, and the test compound or gemfibrozil formulated with serum-free medium at 50 μM were added to the 24-well plate and incubation was continued for 6 hours. After washing once with 200 μL of PBS, 100 μL of reporter gene cell lysis buffer was added, the cells were lysed on ice for 10 minutes, and the cell lysate was collected by pipetting. • (2) After centrifugation was performed at 8000 rpm and 4° C. for 10 min, the supernatant was pipetted for fluorescence assay. • (3) The measurement gap time of chemiluminescence analyzer was set to 2 s and the measurement time was set to 10 s. Automatic sample injection was adopted, 50 μL of luciferase assay reagent was added to each well. The reporter gene cell lysis buffer was used as a blank control. • (4) After centrifugation, the supernatant was taken, and the BCA method was used to determine the protein concentration so as to normalize the reporter gene results.
In this experimental example, the luciferase activity in HepG2 human liver cancer cells stably transfected with a luciferase reporter gene driven by antioxidant response element (ARE) was determined to evaluate the regulatory effects of the compound of the present application and gemfibrozil on the transcriptional activity of transcription factor Nrf2 and the cellular oxidative stress response signals, in which the operation process of the reporter gene assay was the same as that of Experimental Example 2.2.

NF-κB = NF-κB luciferase reporter gene transcriptional activity in SW480 cells; settings: 50 μM, 6 hours, SW480 stably transfected (FIG. 3)
Procedure: as §3

PPARγ = PPARγ mRNA expression by real-time quantitative PCR in HepG2; settings: 1 μM, 6 hours, HepG2 (FIG. 5B)
Text: Peroxisome proliferation factor activated receptor (PPAR) is an important nuclear receptor that regulates glycolipid metabolism, including three subtypes: α, β/δ and γ. Peroxisome proliferator-activated receptor γ coactivator 1α (PGC-1α) is its auxiliary transcriptional activator. Acyl-CoA oxidase 1 (ACOX1) is the first rate-limiting enzyme for fatty acid β oxidation. Fatty acid binding protein 1 (FABP1) is highly expressed in liver, and can bind fatty acid, heme and other molecules to reduce their toxicity and damage. Up-regulating the expression level of these genes helps to improve the body's metabolism, and their agonists are an important class of anti-metabolic drugs. After the compound of the present application (1 μM) and the control drug gemfibrozil (1 μM) were incubated with human liver cancer cells HepG2 for 6 hours, real-time fluorescent quantitative PCR method was used to determine the relative expression of mRNA of related genes in the cells.
The company which synthesized the primers was Suzhou Hongxun Biotechnology Co., Ltd. Tranzol reagent (Tranzol total RNA extraction reagent, TransGen Biotech) was used to extract total RNA from tissues. 5× All-In-One RT MasterMix reverse transcription kit (Abcam, USA) and real-time quantitative PCR Master Mix (Aidlab Biotechnologies Co., Ltd) were used. Bio-Rad CFX Connect™ Real-Time PCR Detection System for qPCR was used, and 2^−ΔΔCT method was used for data analysis. The expression level of mRNA in the normal control group was set to 1, and the relative expression level of mRNA in the administration group was calculated, so as to confirm whether the active compound affected the PPAR pathway, thereby further regulating lipid metabolism.

phosphorylated IRS-1 = assay: Phosphorylated IRS-1 level by Western blotting in HepG2; settings: 1 μM, 24 hours, HepG2, Western blotting (FIG. 6C)
Text: as §1, §2

| Structure (SMILES) | CPT1α protein level (CPT1α) | ARE reporter gene activity [1] | activity of NF-κB reporter gene (NF-κB) | PPARγ mRNA expression (PPARγ) | phosphorylation level of IRS-1 (phosphorylated IRS-1) |
| --- | --- | --- | --- | --- | --- |
| Cc1cc(OCCCC(C)(C)C(=O)O)c(C)cc1Cl [BJMU-1, 5-(4-chloro-2,5-dimethylphenoxy)-2,2-dimethylpentanoic acid] | significantly increased CPT1α protein level | could significantly activate the ARE reporter gene activity | could significantly inhibit the activity of NF-κB reporter gene |  |  |
| Cc1cc(OCCCC(C)(C)C(=O)O)c(C)cc1Br [BJMU-2, 5-(4-bromo-2,5-dimethylphenoxy)-2,2-dimethylpentanoic acid] | significantly increased CPT1α protein level | could significantly activate the ARE reporter gene activity | could significantly inhibit the activity of NF-κB reporter gene | significantly induced PPARγ mRNA expression | significantly increased the phosphorylation level of IRS-1 |
| Cc1cc(OCCCC(C)(C)C(=O)O)c(C)cc1F [BJMU-3, 5-(4-fluoro-2,5-dimethylphenoxy)-2,2-dimethylpentanoic acid] |  | could significantly activate the ARE reporter gene activity |  | significantly induced PPARγ mRNA expression | significantly increased the phosphorylation level of IRS-1 |
| Cc1ccc(C)c(OCCCC(C)(C)C(=O)O)c1 [gemfibrozil, Gemfibrozil, reference compound] |  | did not obviously activate the ARE | could not inhibit the activity of NF-κB reporter gene |  |  |
